This assay relates to NRF2 (NQO1 activity as marker for NRF2 activation), BEAS-2B cells. The experiment in a line: BEAS-2B NQO1 MTT Assay. The assay is classed as cell-based. As to conditions: Homo sapiens, EC50 of NQO1 specific activity induction, 48 hours incubation, read-out: EC50. A digest of the protocol: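 BEAS-2B cells were exposed to compound for 48 h at 37° C, 5% CO2, then lysed. NQO1 activity was measured kinetically by MTT reduction at 570 nm over 30 minutes; EC50 came from 3-parameter fit of Delta OD/min versus log concentration.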

Our source for the EC50 values is patent US11078216B2, “Bisaryl amides as NRF2 activators” (GLAXOSMITHKLINE INTELLECTUAL PROPERTY DEVELOPMENT LIMITED, priority 2016, dated 2021).

Usually EC50 stands for the midpoint of the concentration-response curve. For `CC[C@@H]1CN(Cc2cc([C@@H](c3ccc4c(nnn4CC)c3C)C(C)(C)NC(=O)CC(=O)O)ccc2C)S(=O)(=O)c2ccccc2O1` [Example 142, 3-(((S)-1-(3-(((R)-4-Ethyl-1,1-dioxido-3,4-dihydro-2H-benzo[b][1,4,5]oxathiazepin-2-yl)methyl)-4-methylphenyl)-1-(1-ethyl-4-methyl-1H-benzo[d][1,2,3]triazol-5-yl)-2-methylpropan-2-yl)amino)-3-oxopropanoic acid], the EC50 fell in the range of 10 to 100 nM. For the compound `CC[C@@H]1CN(Cc2cc([C@@H](c3ccc4c(nnn4CC)c3C)C(C)(C)NC(=O)CS(C)(=O)=O)ccc2C)S(=O)(=O)c2ccccc2O1` [Example 143, N-((S)-1-(3-(((R)-4-Ethyl-1,1-dioxido-3,4-dihydro-2H-benzo[b][1,4,5]oxathiazepin-2-yl)methyl)-4-methylphenyl)-1-(1-ethyl-4-methyl-1H-benzo[d][1,2,3]triazol-5-yl)-2-methylpropan-2-yl)-2-(methylsulfonyl)acetamide], the half-maximal effective concentration (EC50) was in the range of 10 to 100 nM. As for `CC[C@@H]1CN(Cc2cc([C@@H](c3ccc4c(nnn4CC)c3C)C(C)(C)NC(=O)CC#N)ccc2C)S(=O)(=O)c2ccccc2O1` [Example 144, 2-Cyano-N-((S)-1-(3-(((R)-4-ethyl-1,1-dioxido-3,4-dihydro-2H-benzo[b][1,4,5]oxathiazepin-2-yl)methyl)-4-methylphenyl)-1-(1-ethyl-4-methyl-1H-benzo[d][1,2,3]triazol-5-yl)-2-methylpropan-2-yl)acetamide], the figure is 10 to 100 nM; as for `CC[C@@H]1CN(Cc2cc([C@@H](c3ccc4c(nnn4CC)c3C)C(C)(C)NC(=O)c3cnc(OC)nc3)ccc2C)S(=O)(=O)c2ccccc2O1` [Example 145, N-((S)-1-(3-(((R)-4-Ethyl-1,1-dioxido-3,4-dihydro-2H-benzo[b][1,4,5]oxathiazepin-2-yl)methyl)-4-methylphenyl)-1-(1-ethyl-4-methyl-1H-benzo[d][1,2,3]triazol-5-yl)-2-methylpropan-2-yl)-2-methoxypyrimidine-5-carboxamide], 1 to 10 nM; as for `CC[C@@H]1CN(Cc2cc([C@@H](c3ccc4c(nnn4CC)c3C)C(C)(C)NC(=O)c3cncnc3)ccc2C)S(=O)(=O)c2ccccc2O1` [Example 146, N-((S)-1-(3-(((R)-4-Ethyl-1,1-dioxido-3,4-dihydro-2H-benzo[b][1,4,5]oxathiazepin-2-yl)methyl)-4-methylphenyl)-1-(1-ethyl-4-methyl-1H-benzo[d][1,2,3]triazol-5-yl)-2-methylpropan-2-yl)pyrimidine-5-carboxamide], 10 to 100 nM. The value for `CC[C@@H]1CN(Cc2cc([C@@H](c3ccc4c(nnn4CC)c3C)C(C)(C)NC(=O)c3cnc(SC)nc3)ccc2C)S(=O)(=O)c2ccccc2O1` [Example 147, N-((S)-1-(3-(((R)-4-Ethyl-1,1-dioxido-3,4-dihydro-2H-benzo[b][1,4,5]oxathiazepin-2-yl)methyl)-4-methylphenyl)-1-(1-ethyl-4-methyl-1H-benzo[d][1,2,3]triazol-5-yl)-2-methylpropan-2-yl)-2-(methylthio)pyrimidine-5-carboxamide] was 10 to 100 nM; that for `CC[C@@H]1CN(Cc2cc([C@@H](c3ccc4c(nnn4CC)c3C)C(C)(C)NC(=O)c3c[nH]cn3)ccc2C)S(=O)(=O)c2ccccc2O1` [Example 148, N-((S)-1-(3-(((R)-4-Ethyl-1,1-dioxido-3,4-dihydro-2H-benzo[b][1,4,5]oxathiazepin-2-yl)methyl)-4-methylphenyl)-1-(1-ethyl-4-methyl-1H-benzo[d][1,2,3]triazol-5-yl)-2-methylpropan-2-yl)-1H-imidazole-4-carboxamide] was 100 to 1000 nM; that for `CC[C@@H]1CN(Cc2cc([C@@H](c3ccc4c(nnn4CC)c3C)C(C)(C)NC(=O)c3cscn3)ccc2C)S(=O)(=O)c2ccccc2O1` [Example 149, N-((S)-1-(3-(((R)-4-Ethyl-1,1-dioxido-3,4-dihydro-2H-benzo[b][1,4,5]oxathiazepin-2-yl)methyl)-4-methylphenyl)-1-(1-ethyl-4-methyl-1H-benzo[d][1,2,3]triazol-5-yl)-2-methylpropan-2-yl)thiazole-4-carboxamide] was 10 to 100 nM. The value for `CC[C@@H]1CN(Cc2cc([C@@H](c3ccc4c(nnn4CC)c3C)C(C)(C)NC(=O)c3cc[nH]n3)ccc2C)S(=O)(=O)c2ccccc2O1` [Example 150, N-((S)-1-(3-(((R)-4-Ethyl-1,1-dioxido-3,4-dihydro-2H-benzo[b][1,4,5]oxathiazepin-2-yl)methyl)-4-methylphenyl)-1-(1-ethyl-4-methyl-1H-benzo[d][1,2,3]triazol-5-yl)-2-methylpropan-2-yl)-1H-pyrazole-3-carboxamide] was 10 to 100 nM; that for `CC[C@@H]1CN(Cc2cc([C@@H](c3ccc4c(nnn4CC)c3C)C(C)(C)NC(=O)c3cocn3)ccc2C)S(=O)(=O)c2ccccc2O1` [Example 151, N-((S)-1-(3-(((R)-4-Ethyl-1,1-dioxido-3,4-dihydro-2H-benzo[b][1,4,5]oxathiazepin-2-yl)methyl)-4-methylphenyl)-1-(1-ethyl-4-methyl-1H-benzo[d][1,2,3]triazol-5-yl)-2-methylpropan-2-yl)oxazole-4-carboxamide] was 10 to 100 nM; that for `CC[C@@H]1CN(Cc2cc([C@@H](c3ccc4c(nnn4CC)c3C)C(C)(C)NC(=O)c3ccno3)ccc2C)S(=O)(=O)c2ccccc2O1` [Example 152, N-((S)-1-(3-(((R)-4-Ethyl-1,1-dioxido-3,4-dihydro-2H-benzo[b][1,4,5]oxathiazepin-2-yl)methyl)-4-methylphenyl)-1-(1-ethyl-4-methyl-1H-benzo[d][1,2,3]triazol-5-yl)-2-methylpropan-2-yl)isoxazole-5-carboxamide] was 1 to 10 nM. For the compound `CC[C@@H]1CN(Cc2cc([C@@H](c3ccc4c(nnn4CC)c3C)C(C)(C)NC(=O)c3ccon3)ccc2C)S(=O)(=O)c2ccccc2O1` [Example 153, N-((S)-1-(3-(((R)-4-Ethyl-1,1-dioxido-3,4-dihydro-2H-benzo[b][1,4,5]oxathiazepin-2-yl)methyl)-4-methylphenyl)-1-(1-ethyl-4-methyl-1H-benzo[d][1,2,3]triazol-5-yl)-2-methylpropan-2-yl)isoxazole-3-carboxamide], the EC50 lay within 10 to 100 nM. As to `CC[C@@H]1CN(Cc2cc([C@@H](c3ccc4c(nnn4CC)c3C)C(C)(C)NC(=O)c3cncc(F)c3)ccc2C)S(=O)(=O)c2ccccc2O1` [Example 154, N-((S)-1-(3-(((R)-4-Ethyl-1,1-dioxido-3,4-dihydro-2H-benzo[b][1,4,5]oxathiazepin-2-yl)methyl)-4-methylphenyl)-1-(1-ethyl-4-methyl-1H-benzo[d][1,2,3]triazol-5-yl)-2-methylpropan-2-yl)-5-fluoronicotinamide], the half-maximal effective concentration (EC50) is 10 to 100 nM. As for `CC[C@@H]1CN(Cc2cc([C@@H](c3ccc4c(nnn4CC)c3C)C(C)(C)NC(=O)c3cncc(C(F)(F)F)c3)ccc2C)S(=O)(=O)c2ccccc2O1` [Example 155, N-((S)-1-(3-(((R)-4-Ethyl-1,1-dioxido-3,4-dihydro-2H-benzo[b][1,4,5]oxathiazepin-2-yl)methyl)-4-methylphenyl)-1-(1-ethyl-4-methyl-1H-benzo[d][1,2,3]triazol-5-yl)-2-methylpropan-2-yl)-5-(trifluoromethyl) nicotinamide], the figure is 10 to 100 nM. The value for `CC[C@@H]1CN(Cc2cc([C@@H](c3ccc4c(nnn4CC)c3C)C(C)(C)NC(=O)c3ccc(=O)[nH]c3)ccc2C)S(=O)(=O)c2ccccc2O1` [Example 156, N-((S)-1-(3-(((R)-4-Ethyl-1,1-dioxido-3,4-dihydro-2H-benzo[b][1,4,5]oxathiazepin-2-yl)methyl)-4-methylphenyl)-1-(1-ethyl-4-methyl-1H-benzo[d][1,2,3]triazol-5-yl)-2-methylpropan-2-yl)-6-oxo-1,6-dihydropyridine-3-carboxamide] was 100 to 1000 nM. The value for `CC[C@@H]1CN(Cc2cc([C@@H](c3ccc4c(nnn4CC)c3C)C(C)(C)NC(=O)c3cnc(S(C)(=O)=O)nc3)ccc2C)S(=O)(=O)c2ccccc2O1` [Example 157, N—((S)-1-(3-(((R)-4-Ethyl-1,1-dioxido-3,4-dihydro-2H-benzo[b][1,4,5]oxathiazepin-2-yl)methyl)-4-methylphenyl)-1-(1-ethyl-4-methyl-1H-benzo[d][1,2,3]triazol-5-yl)-2-methylpropan-2-yl)-2-(methylsulfonyl)pyrimidine-5-carboxamide] was 100 to 1000 nM. In the case of `CC[C@@H]1CN(Cc2cc([C@@H](c3ccc4c(nnn4CC)c3C)C(C)(C)NC(=O)c3cnc(N4CCC4)nc3)ccc2C)S(=O)(=O)c2ccccc2O1` [Example 158, 2-(Azetidin-1-yl)-N—((S)-1-(3-(((R)-4-ethyl-1,1-dioxido-3,4-dihydro-2H-benzo[b][1,4,5]oxathiazepin-2-yl)methyl)-4-methylphenyl)-1-(1-ethyl-4-methyl-1H-benzo[d][1,2,3]triazol-5-yl)-2-methylpropan-2-yl)pyrimidine-5-carboxamide], the 50% effective concentration (EC50) was 10 to 100 nM. Take `CC[C@@H]1CN(Cc2cc([C@@H](c3ccc4c(nnn4CC)c3C)C(C)(C)NC(=O)c3cnc(N4CCCC4)nc3)ccc2C)S(=O)(=O)c2ccccc2O1` [Example 159, N-((S)-1-(3-(((R)-4-Ethyl-1,1-dioxido-3,4-dihydro-2H-benzo[b][1,4,5]oxathiazepin-2-yl)methyl)-4-methylphenyl)-1-(1-ethyl-4-methyl-1H-benzo[d][1,2,3]triazol-5-yl)-2-methylpropan-2-yl)-2-(pyrrolidin-1-yl)pyrimidine-5-carboxamide]: the EC50 was in the range of 10 to 100 nM. As for `CC[C@@H]1CN(Cc2cc([C@@H](c3ccc4c(nnn4CC)c3C)C(C)(C)NC(=O)c3cnc(OCCCOC)nc3)ccc2C)S(=O)(=O)c2ccccc2O1` [Example 160, N-((S)-1-(3-(((R)-4-Ethyl-1,1-dioxido-3,4-dihydro-2H-benzo[b][1,4,5]oxathiazepin-2-yl)methyl)-4-methylphenyl)-1-(1-ethyl-4-methyl-1H-benzo[d][1,2,3]triazol-5-yl)-2-methylpropan-2-yl)-2-(3-methoxypropoxy)pyrimidine-5-carboxamide], the figure is 1 to 10 nM.
